In patent publication US6177475A, “Methods of using integrin modulators for treatment of inflammation” (priority 1997, dated 2001):
pIC50: −log10 of the molar value.

Columns and labels:
[1] = test system: neutrophils (β2 integrins); experiment: N-formyl-L-methionyl-L-leucyl-L-phenylalanine-stimulated neutrophil aggregation; format: cell-based
Protocol: Neutrophil aggregation was assayed as described above for the platelet system, with some modifications. Freshly isolated neutrophils were finally suspended in a buffer (120 mM NaCl, 4 mM KCl, 10 mM dextrose, 2 mM CaCl2·2H2 O, 2 mM MgCl2·6H2 O, and 20 mM Tris; pH 7.4) to the final density of 10^7 cells per ml. Aliquots of neutrophil suspension (0.25 ml in siliconized glass cuvettes; 10^7 cells per ml) were stirred in the cell of the aggregometer with 5 micrograms per ml cytochalasin B (1000 rpm, 37° C.) for 1 min. […] Maximum LT (100%) was calibrated with the same buffer.
(§1) The requirement of integrins for the formation of cell-to-cell contacts in each of these systems has long been established. It is known that in platelets the relevant integrin is GP IIb/IIIa (β3). Neutrophil aggregation is underlain by interactions of β2 integrins (e.g., LFA-1 and/or Mac-1) with their surface counterstructures, while cohesion of T-cells is supported by both β2 integrins and fibronectin-binding β1 integrins (e.g., VLA-4 and VLA-5).

Jurkat cells = experiment: Disruption of cell clusters formed by Jurkat cells in culture; format: cell-based; settings: Homo sapiens, 16 to 24 h
Protocol: T-lymphocytic H9 and Jurkat cells were maintained as suspension cultures in RPMI-1640 medium supplemented with 10% (v/v) heat-inactivated fetal calf serum, 50 micrograms/ml gentamycin and 2 mM L-glutamine. To assess the effects of Ajoene on adhesive interactions of the cells, H9 cells or Jurkat cells were seeded in 96-well flat-bottomed plates (3×10^5cells per well) and cultured in the presence of log 10 dilutions of Ajoene (experiment) or its vehicle (control) for 16 to 24 h.
as §1

[2] = test system: VLA-4 (Jurkat cells, VCAM-1); experiment: VLA-4-dependent adhesion of Jurkat cells to VCAM-1; format: cell-based; settings: Homo sapiens, 1 h, 37° C.
Protocol: Microtiter plates were coated with ligands of the integrin VLA-4, i.e., recombinant human VCAM-1 (500 nanograms per well) or the fragment of connective segment of human fibronectin (CS-1), covalently attached to ovalbumin (5 micrograms per well) by overnight incubation (4° C.) with solutions of the proteins in phosphate-buffered saline (PBS). The plates were blocked with 1% bovine serum albumin (BSA) in Hanks' buffered salt solution (HBSS-BSA). The cells (Jurkat or human melanoma MV3) were labeled with the fluorescent dye 5-chloromethylfluorescein diacetate (CMFDA) and introduced into the wells of the plates (10^5 cells per well) together with varying amounts of Ajoene. After incubation at 37° C. for 1 h, the unbound cells were removed by aspiration and the wells washed four times with HBSS-BSA. Thereafter, the bound cells were lysed with 0.5% Triton X-100, and the fluorescence was measured using a Cytofluor 2300 plate reader. The number of adherent cells was calculated from a standard dilution curve of Triton X-100 lysates of the CMFDA-labeled cells.

51Cr-labeled monocytes = experiment: Monocyte recruitment to inflamed skin; format: in vivo, rat; settings: 50 mg/kg i.v.; for Accumulation of 51Cr-labeled Monocytes (mean ± SEM): 2 h
Source text: Chemotactic factors (e.g., C5adesArg) and cytokines, such as tumor necrosis factor α (TNF) or interferon gamma (IFN), induce rapid cutaneous inflammatory reactions, when injected intradermally. These inflammatory reactions are characterized by integrin-mediated migration of ^51 Cr-labeled monocytes and ^111 In-labeled neutrophils. The mechanisms of leukocyte recruitment to the inflammatory loci differ, however, in that chemotactic factors act primarily on leukocytes (by upregulating integrins), whereas TNF and IFN activate endothelial cells (which results, inter alia, in rapid expression of integrin ligands, such as ICAM-1 and VCAM-1).
Agents used for the induction of the inflammation included rat IFN, recombinant mouse TNF (Genentech, South San Francisco, Calif.), and Zymozan-activated serum (ZAS). ZAS, a source of C5adesArg, was generated by activating complement in normal rat serum with 5 mg/ml of Zymozan A (Sigma Chemical Company, St. Louis, Mo.) at 37° C. for 60 min, after which the zymozan was removed.
Rat monocytes and neutrophils were isolated and labeled as described in Example 6, supra. Male Lewis rats were administered intravenously with 50 mg/kg Ajoene (treatment group) or its vehicle (control), followed within 2-3 min by infusion of the labeled cells. Immediately afterwards, the skin on the back of all animals was shaved and the inflammatory stimuli and the diluent control were injected intradermally at several sites of the skin of each animal. Two hours later, 1 ml of blood was taken from each rat, and the animals were sacrificed. The dorsal skin, including the area of dermal inflammatory reactions, was removed and frozen, and the injected skin sites were punched out with a 12-mm punch and counted in a gamma spectrometer (model 1280, LXB Instruments).

[3] = test system: SupT1LAV-BRU cells / SupT1 cells (HIV-1LAV-BRU); experiment: HIV-induced syncytium formation, SupT1LAV-BRU donor with SupT1 recipient; format: cell-based; settings: Human immunodeficiency virus 1, SUP-T1, 16 h, read-out: IC50 of Ajoene, syncytium formation
Protocol: Chronically infected and uninfected cell lines (HIV donors and targets, respectively) were maintained as suspension cultures in RPNI-1640 medium supplemented with 10% (v/v) heat-inactivated fetal calf serum, 50 micrograms/ml gentamycin and 2 mM L-glutamine. HIV donors used were (1) a cloned population of H9 cells harboring the genome of HIV-1RF (H9RF cells); and (2) a cloned population of SupT1 cells harboring the genome of HIV-1LAV-BRU (SupT1LAV-BRU cells). To assess the effect of Ajoene on syncytium formation, the donors were mixed with their respective recipients, H9 and SupT1, at a ratio of 1:2 in 96-well flat-bottomed plates (3×10^5 cells per well). Log 10 dilutions of Ajoene were then introduced into the wells, and the cells were cocultured for 16 h. Control wells received the vehicle of Ajoene. By the end of the incubation period syncytia were counted, and the values of IC50 for Ajoene were calculated by plotting relative amounts of syncytia (percent of the syncytia formed in the absence of the compound) against Ajoene concentration.

HIV-1 strain IIIB = experiment: Protection of MT-4 cells against infection with free HIV (PCR for proviral DNA); format: cell-based; settings: Human immunodeficiency virus 1, IIIB, MT4, 16 hours
Protocol: The effect of Ajoene in protecting against HIV infection was evaluated using polymerase chain reaction (PCR) analysis which recognized amplified DNA sequences of HIV gag gene. MT-4 cells were used as target cells and strain IIIB of HIV-1 was used as inoculate. Serial dilutions of Ajoene or an equivalent volume of its vehicle were added to MT-4 cells, followed by addition of a sufficient amount of free virus (≥10^3 particles per cell). The protective effect of Ajoene was monitored by examining for the absence or presence of proviral HIV DNA in target cells 16 hours after the inoculation.

MT-4 cells = format: cell-based

SMILES: C=CCSSC=CC[S+]([O-])CC=C (centres unmarked) [Ajoene, 4,5,9-trithiadodeca-1,6,11-triene-9-oxide]
- IC100 ([1]; Neutrophil, stimulus N-formyl-L-methionyl-L-leucyl-L-phenylalanine 10^-7 M): ~10 µM
- deaggregation of aggregated neutrophils ([1]; added to aggregated neutrophils): caused rapid deaggregation
- pIC50 (Jurkat cells): ~7.30
- pIC50 [2]: 3.60
- Accumulation of 51Cr-labeled Monocytes (mean ± SEM) (51Cr-labeled monocytes; 10 ng TNF, P < 0.002): 1,274 cpm per inflammatory locus
- inhibition of monocyte migration to loci of acute cutaneous inflammation (51Cr-labeled monocytes): 50-75%
- Accumulation of 51Cr-labeled Monocytes (mean ± SEM) (51Cr-labeled monocytes; 25% ZAS, P < 0.020): 944 cpm per inflammatory locus
- Accumulation of 51Cr-labeled Monocytes (mean ± SEM) (51Cr-labeled monocytes; 50% ZAS, P < 0.002): 1,268 cpm per inflammatory locus
- Accumulation of 51Cr-labeled Monocytes (mean ± SEM) (51Cr-labeled monocytes; 300 U IFN, P < 0.001): 468 cpm per inflammatory locus
- Accumulation of 51Cr-labeled Monocytes (mean ± SEM) (51Cr-labeled monocytes; diluent control stimulus, N.S.): 15 cpm per inflammatory locus
- pIC50 [3]: ~8.30
- pIC50 (HIV-1 strain IIIB): 5.30
- IC100 (HIV-1 strain IIIB; read-out: minimal dose completely preventing HIV infection): 17 µM
- toxic effects on the cells (MT-4 cells): without any toxic effects on the cells
